{"source": "patent US9790504B2", "about": "“Anti-tumor therapy” (The University of Chicago, priority 2013, dated 2017)", "key": {"[1]": {"system": "two lung cancer cell lines", "settings": "associated with suppression of the Stat3 pathway; cited from earlier work"}, "lung cancer cell lines": {"system": "lung cancer cell lines", "assay": "Clonogenic assay, sensitivity of lung cancer cell lines to drug", "assay_type": "cell-based", "procedure": "(§1) To screen the candidate interferon-stimulated genes, a panel of fifteen individual cancer cell lines were selected from those available in our lab, the ATCC, or affiliated laboratories (see Table No. 3, below). These cell lines were characterized for relative radioresistance using a clonogenic assay. Briefly, the cells were cultured in their appropriate media at 5% CO2 at 37° C. Optimal cell plating concentrations for a p60 dish were determined for each cell line. The majority of cell lines were plated in triplicate at concentrations of 100 cells/plate for control, 1000 cells/plate for 2 Gy, 2000 cells/plate for 5 Gy, and 3000 cells/plate for 8 Gy. Plates were irradiated 24 hours after plating with either 2, 5, or 8 Gy using a Nordion Gammacell ^60Co irradiator operating at a dose rate of ˜18 Gy/minute. Cells were allowed to grow for 10-21 days (depending on the cell line) until colonies were >50 cells. Plates were then fixed with formalin and stained with crystal violet. Colonies with more than 50 cells were counted. Clonogenic survival for Clonogenic data was obtained for all cell lines tested in screen.\nIn subsequent experiments, 18 lung cancer cell lines were tested for sensitivity to the Jak2 inhibitor SAR302503 (TG) using a clonogenic assay. […] Further, radioresistance was positively correlated with resistance to Jak2 suppression in 11 cell lines. […]"}, "different cell lines": {"system": "different cell lines", "assay": "Suppression of tumor growth in different cell lines", "assay_type": "cell-based", "settings": "data not shown"}, "Stat1": {"system": "Stat1", "assay": "Western blot of interferon-mediated Stat1 activation with Jak inhibitors", "assay_type": "cell-based", "settings": "β- and γ-interferon (Type I and Type II IFN) signaling, SCC61 cells", "procedure": "(§2) Treatment with TG and Rux inhibited β- and γ-interferon-mediated activation of Stat1 and Stat3;\n(§3) Total cellular protein was extracted in radioimmunoprecipitation assay buffer with protease inhibitors added (1×PBS, 1% NP40, 0.5% sodium deoxycholate, 0.1% SDS, 1 mmol/L Na3VO4, 2 μg/mL aprotinin, 1 mmol/L phenylmethylsulfonyl fluoride). All samples were normalized by protein concentration using Bradford reagent and standard solution of bovine serum albumin (1 mg/mL). Concentration of all samples was adjusted to 1 mg/mL and equal amount of protein was loaded in each well. For total proteins, 10 μg of protein was loaded per well. Proteins were separated on 7.5%-12% SDS-PAGE (depending on molecular mass of protein) and transferred to polyvinylidene difluoride membranes (PVDF). Total proteins were detected using the rabbit or goat primary Abs. For loading control, the antibodies for actin (I-19) and glyceraldehyde-3-phosphate dehydrogenase (GAPDH; FL-335) were used. All antibodies were purchased from Santa Cruz Biotechnology. Images were quantified with ImageJ software by integration pixel values across the area of specific bands.\n(§4) The effects of Jak1/2 and Jak2 inhibitors were investigated on the activation of Stat1 and Stat3 in the context of Type I and Type II IFN signaling. […]"}, "Stat3": {"system": "Stat3", "assay": "Western blot of interferon-mediated Stat3 activation with Jak inhibitors", "assay_type": "cell-based", "settings": "β- and γ-interferon (Type I and Type II IFN) signaling, SCC61 cells", "procedure": "as §2, §3, §4"}, "H2030 cells": {"system": "H2030 cells", "assay": "Clonogenic assay, ionizing radiation plus TG", "assay_type": "cell-based", "settings": "5 Gy+1 μM TG; most radioresistant cells", "procedure": "as §1\nIn subsequent experiments, 18 lung cancer cell lines were tested for sensitivity to the Jak2 inhibitor SAR302503 (TG) using a clonogenic assay. […] Further, radioresistance was positively correlated with resistance to Jak2 suppression in 11 cell lines."}, "[2]": {"system": "CW22Rv1 (pStat3-positive) xenografts", "assay": "Xenograft in nude mice treated by ionizing radiation, TG, or their combination", "assay_type": "in vivo", "settings": "constitutively active Jak/Stat signaling", "procedure": "(§5) The relative sensitivity of lung cancer cell lines to TG and etoposide—one of the most common drugs in adjuvant chemotherapy of lung cancer was also tested. Subgroups of cell lines were found with relatively high resistance to etoposide (SF>0.5) but relatively sensitive to TG (0.1<SF<0.2; see FIG. 8). As proof of principle, two isogenic cell lines CWRR1 (pStat3-negative, without constitutive activation of Jak/Stat-signaling) and CW22Rv1 (with constitutively active Jak/Stat signaling) were established as xenografts in nude mice and treated by ionizing radiation, TG, or their combination."}, "[3]": {"system": "CWRR1 (pStat3-negative) xenografts", "assay": "Xenograft in nude mice treated by ionizing radiation, TG, or their combination", "assay_type": "in vivo", "settings": "without constitutive activation of Jak/Stat signaling", "procedure": "as §5"}}, "note": "“Also recorded” adds a separate entry of the source.", "data": [{"smiles": "Cc1cnc(Nc2ccc(N3CCN(C)CC3)cc2)nc1Nc1cccc(S(=O)(=O)NC(C)(C)C)c1", "note": "[TG101209]", "values": [{"measurement": "radiosensitizing effects", "setting": "[1]", "result": "radiosensitizing effects"}]}, {"smiles": "Cc1cnc(Nc2ccc(OCCN3CCCC3)cc2)nc1Nc1cccc(S(=O)(=O)NC(C)(C)C)c1", "note": "[TG]", "values": [{"measurement": "sensitivity to TG", "setting": "lung cancer cell lines; 7 relatively radioresistant cell lines of 18 lung cancer cell lines, clonogenic assay", "result": "high sensitivity"}, {"measurement": "suppression of tumor growth compared to Ruxolitinib", "setting": "different cell lines", "result": "more effectively suppressed tumor growth compared to Ruxolitinib"}, {"measurement": "phosphorylation (activation) of Stat1", "setting": "Stat1", "result": "suppressed; also recorded: inhibited"}, {"measurement": "phosphorylation (activation) of Stat3", "setting": "Stat3", "result": "suppressed; also recorded: inhibited"}, {"measurement": "clonogenic colonies", "setting": "H2030 cells", "result": "no clonogenic colonies formed"}, {"measurement": "sensitization to ionizing radiation", "setting": "[2]", "result": "successfully sensitized"}, {"measurement": "sensitization to ionizing radiation", "setting": "[3]", "result": "not sensitized"}]}, {"smiles": "COc1cc([C@@H]2c3cc4c(cc3[C@@H](O[C@@H]3O[C@@H]5CO[C@@H](C)O[C@H]5[C@H](O)[C@H]3O)[C@H]3COC(=O)[C@H]23)OCO4)cc(OC)c1O", "note": "[etoposide]", "values": [{"measurement": "SF (surviving fraction)", "setting": "lung cancer cell lines; subgroups of lung cancer cell lines with high resistance to etoposide but relatively sensitive to TG", "result": "> 0.5"}]}]}
